Measurements reported in PMC12794516, “Modulation of endothelial-to-mesenchymal transition via NRP-1 targeting with melittin attenuates pulmonary fibrosis” (Materials Today Bio, 2025).

Assays:
HUVECs = experiment: Cell viability assay (MTS); format: cell-based, Human; details: 24 h incubation, n = 3
Description: Cell viability was assessed using the MTS assay (Promega). Briefly, HUVECs were seeded at 5000 cells/well in triplicate in a 96-well plate. When the density of the cells reached approximately 80 %, MLT at different concentrations was added, and the cells were incubated for 24 h. Then, 20 μL of MTS reagent was added to each well, followed by incubated for 2 h. Absorbance was measured at 490 nm using a microplate reader.

[1] = In vivo and ex vivo fluorescence imaging (biodistribution, blood and lung retention); parameters: species or system C57BL/6 mice
Description: To evaluate the biodistribution and lung targeting of MLT and M-pLNP, two fluorescence imaging experiments were performed in a BLM-induced PF model. In the first study, normal and PF mice (n = 6) received a single intraperitoneal injection of MLT-RhB (or PBS control), and were euthanized 30 min later for collection of major organs. In the second study, PF mice were randomly divided into two groups receiving either MLT-RhB or M-pLNP-RhB. Comprehensive in vivo whole-body fluorescence imaging was performed at multiple time points (10 min, 30 min, 1 h, 3 h and 6 h) after administration. Additionally, ex vivo analysis was conducted by collecting blood samples and lung tissues at […] critical time points (10 min, 30 min, 1 h, 6 h, 12 h, and 24 h). All imaging was performed using an IVIS Lumina XRMS system, in vivo and ex vivo samples were imaged through RhB channels (Ex/Em = 545/570 nm). Mean fluorescence intensity was used to quantitatively assess tissue distribution and lung accumulation.

NRP-1 receptor on HUVECs = experiment: In vitro cell targeting (uptake of MLT-RhB, flow cytometry and confocal imaging); format: cell-based, Human; details: flow cytometry; HUVECs with TGF-β1 10 ng/mL 48 h; MLT-RhB 2 μg/mL 1 h; n = 3
Description: To assess the NRP-1 receptor-targeting ability of MLT, HUVECs were seeded into 96-well plates at a density of 1.5 × 10^4 cells per well and cultured overnight in complete growth medium. TGF-β1 (10 ng/mL) was added to all groups except the control group and incubated for 48 h. Subsequently, each group was treated with the RPARPAR peptide (0.5 mM) for 1 h, followed by the addition of MLT-RhB (2 μg/mL) for an additional hour. For flow cytometry, cells were processed and analyzed using a flow cytometer (Dakewe Biotech Co., Ltd., China), and data were analyzed with FlowJo software (FlowJo, Ashland, OR, USA). For immunofluorescence, following the same treatment protocol, cells were fixed with 4 % paraformaldehyde and immunostained. NRP-1 was detected using an anti-NRP-1 primary antibody and an Alexa Fluor® 647-conjugated secondary antibody. Nuclei were stained with DAPI. Imaging was performed using a SpinSR10 spinning disk confocal super-resolution microscope (Olympus, Japan) with the following excitation wavelengths: 405 nm for DAPI; 535 nm for RhB; and 640 nm for NRP-1.

[2] = RhB-labeled, single i.p. injection, PF mice, ex vivo lung fluorescence, n = 3

| Compound | concentration at which MLT started to induce cellular toxicity (HUVECs) | time within which the blood fluorescence signal was nearly undetectable ([1]; RhB-labeled, single i.p. injection, 15 nmol RhB equivalent per mouse, PF mice, blood samples) | time within which the peritoneal fluorescence signal was substantially weakened ([1]; RhB-labeled, single i.p. injection, 15 nmol RhB equivalent per mouse, PF mice, in vivo imaging) | time by which lung fluorescence reached near-background levels (clearance) [1, 2] | time of peak lung accumulation [1, 2] | mean fluorescence intensity (MFI) of RhB in TGF-β1 group vs control group (uptake) (NRP-1 receptor on HUVECs) | lung radiant efficiency, PF lungs vs control ([1]; MLT-RhB single intraperitoneal injection, ex vivo imaging 30 min post-injection, PF vs normal mice, n = 3) |
| --- | --- | --- | --- | --- | --- | --- | --- |
| CC[C@H](C)[C@H](NC(=O)CN)C(=O)NCC(=O)N[C@@H](C)C(=O)N[C@H](C(=O)N[C@@H](CC(C)C)C(=O)N[C@@H](CCCCN)C(=O)N[C@H](C(=O)N[C@@H](CC(C)C)C(=O)N[C@H](C(=O)N[C@H](C(=O)NCC(=O)N[C@@H](CC(C)C)C(=O)N1CCC[C@H]1C(=O)N[C@@H](C)C(=O)N[C@@H](CC(C)C)C(=O)N[C@H](C(=O)N[C@@H](CO)C(=O)N[C@@H](Cc1c[nH]c2ccccc12)C(=O)N[C@H](C(=O)N[C@@H](CCCCN)C(=O)N[C@@H](CCCNC(=N)N)C(=O)N[C@@H](CCCCN)C(=O)N[C@@H](CCCNC(=N)N)C(=O)N[C@@H](CCC(N)=O)C(=O)N[C@@H](CCC(N)=O)C(N)=O)[C@@H](C)CC)[C@@H](C)CC)[C@@H](C)O)[C@@H](C)O)C(C)C)C(C)C [MLT, Melittin] | 8000 ng/mL | ≤ 6 h | 30 min | ≤ 6 h | 30 min |  |  |
| MLT-RhB: Rhodamine B-labeled MLT |  |  |  |  |  | significantly higher than that in the control group | ~1.5 fold |
